# Measured values reported in patent US20220403032A1, “THERAPY FOR DIABETES USING STEM CELL MIGRATION AGENT” (Biozipcode, Inc., priority 2019, published 2022).
# Tested on: diabetic patients (type 1 and type 2 diabetes mellitus)
# Test: Research Plan 2: therapy of diabetes mellitus targeting a bone marrow-derived abnormal hematopoietic stem cell
# Assay type: in vivo, human
# Conditions: type 1 and type 2 diabetic patients; twelve weeks of therapy; predicted result
substance,measurement,value
insulin [insulin alone],Effect of eliminating an abnormal hematopoietic stem cell,not eliminated
same,Effect of healing diabetes mellitus,not observed
same,Therapeutic effect on a complication,"observed to some extent, but the complication does not heal"
